Data: patent publication US8802726B2, “Use of nitrooxyderivative of drug for the treatment of muscular dystrophies” (Nicox S.A., priority 2006, dated 2014)
Marks after values point to notes of the source that are not given here.

Assays:
α-SG-null mice = test: In vivo functional test: resistance to fatigue (exhaustion) by treadmill; conditions: for Extent of the benefit (%) on exhaustion time, treated vs untreated mice: in the diet
Description: The effectiveness of naproxcinod, isosorbide dinitrate (ISD) alone and in combination with ibuprofen, molsidomine and prednisolone were evaluated using a test of functional recovery in a mouse model of muscular dystrophy (α-SG-null mice). The experiments to assess the functional recovery in α-SG-null mice were performed according to the following experimental protocol. All experiments and functional evaluations were performed by the same operator in the same laboratory.
α-SG-null mice were housed in a pathogen-free facility, treated in accordance with the European Community Guidelines and with the approval of the Institutional Ethical Committee. Mice were given the following treatments: 3 mg/kg of molsidomine, 30 mg/kg of naproxcinod, 30 mg/kg of ISD alone and in combination with 50 mg/kg of ibuprofen, or 2 mg/kg of prednisolone incorporated in the diet. Control groups received the same diet without any drugs. Standard diet and diets containing the drugs were prepared based on the daily food intake of 3 g. Mice were treated starting at 1 month of age.
Analyses were carried out using a six-lane motorized treadmill (Exeter 3/6 treadmill, Columbus Instruments, OH, USA) supplied with shocker plates. The initial trials were performed at low intensity and for a short duration of time to get mice accustomed to the exercise; the treadmill was then run without inclination at 5 m/min for 5 min, after which the speed was increased 1 m/min every 3 min until a speed of 10 m/min was reached. The test was stopped when the mouse remained on the shocker for 20 sec without attempting to reengage the treadmill.
The extent of benefit (%) is expressed as the percent of the improvement of treated mice (diet containing the drug) compared to untreated mice (standard diet) on the exhaustion time.

[1] = test system: α-sarcoglycan (SG)-null C57BL/6 mice; test: Histology of diaphragm and tibialis anterior (inflammatory infiltrates, necrotic fibres), muscular dystrophy model; type: in vivo; conditions: for Overall effect on histological, functional and biochemical alterations (in words): α-SG-null mice, 20 to 80 days, summary of tables 1 and 2
Description: (§1) Muscular Dystrophy Model (α-Sarcoglycan-Deficient Mice)
(§2) • 2-acetyloxy benzoic acid 3-(nitrooxymethyl)benzoate of formula (Ib); • pravastatin 4-(nitrooxy)butyl ester which of formula (XXXVb); • 2-fluoro-alfa-methyl-4[1,1′-biphenyl]4-acetic acid 4-nitrooxybutyl ester of formula (IIIb); • prednisolone as reference corticosteroid drug. […] At indicated time-points (ranging from 20 to 80 days) skeletal muscle function was tested by the free wheel test. 24 hours later animals were sacrificed, tissue isolated and histological characteristics analysed. Infiltrates were assessed after staining with the Azan Mallory technique; Necrotic fibres were measured in hematoxilin-stained sections; creatin kinase was measured using a commercially available kit on blood samples obtained 24 hours prior to the wheel test. […] Free Wheel Running: Voluntary wheel running was used as the exercise paradigm to avoid any physiological changes that may occur due to the stress of forced treadmill running. Mice were housed singly for a 24 hour period in a polycarbonate running wheel equipped with a magnetic counter, the output of which was sent to a speedometer, allowing quantification of the number of revolutions per day. Creatine Kinase Activity Measurements: quantitative and kinetic determination of creatine kinase activity in serum of control and drug treated-animals was measured using creatine kinase reagent (Sigma), according to the manufacturer's instructions. Blood was collected from tail of 2-7 months-old mice and serum obtained after centrifugation at 13.000 rpm for 10 minutes was stored at −80° C. before measurements. Histology: Diaphragm and tibialis anterior of untreated and drug-treated mice were isolated and included in Killik frozen section medium, quickly frozen and cut into 8-μm thick sections with the muscle fibres oriented transversely using a cryostat. Sections were stained with either Hematoxylin & Eosin or Azan Mallory, to evaluate the number of inflammatory infiltrates and necrotic fibres ([…] for tissue).

[2] = test system: α-sarcoglycan (SG)-null C57BL/6 mice; test: Creatine kinase activity measurements in serum, muscular dystrophy model; type: in vivo; conditions: daily in the diet, Ib 100, XXXVb 12, IIIb 30, prednisolone 3 mg/kg
Description: as §1, §2

[3] = test system: α-sarcoglycan (SG)-null C57BL/6 mice; test: Free wheel running test (voluntary wheel running), muscular dystrophy model; type: in vivo; conditions: daily in the diet
Description: as §1, §2

[4] = 80 days of treatment, daily in the diet, Ib 100 mg/kg, XXXVb 12 mg/kg, IIIb 30 mg/kg, prednisolone 3 mg/kg
[5] = 80 days of treatment, daily in the diet, Ib 100 mg/kg, XXXVb 12 mg/kg, IIIb 30 mg/kg, prednisolone 3 mg/kg, Azan Mallory staining
[6] = 20 days of treatment, Ib 100, XXXVb 12, IIIb 30, prednisolone 3 mg/kg
[7] = 40 days of treatment, Ib 100, XXXVb 12 mg/kg
[8] = 60 days of treatment, Ib 100, XXXVb 12 mg/kg

Row | Compound | Extent of the benefit (%) on exhaustion time, treated vs untreated mice (α-SG-null mice; 4 months of treatment, naproxcinod 30 mg/kg, ISD 30 mg/kg, ibuprofen 50 mg/kg) [%] | Amelioration of muscle function (in words) (α-SG-null mice; compared to molsidomine, ISD alone, ISD and ibuprofen, or prednisolone) | N° of necrotic Fibres/section [1, 4] | N° of inflammatory Infiltrates/section [1, 5] | CK plasma level ([2]; 20 days of treatment) | CK plasma level ([2]; 40 days of treatment) [U/ml] | CK plasma level ([2]; 60 days of treatment) [U/ml] | CK plasma level ([2]; 80 days of treatment) | Free wheel test [3, 6] [km/24 h] | Extent of the benefit (%) on exhaustion time, treated vs untreated mice (α-SG-null mice; 6 months of treatment, prednisolone 2 mg/kg) [%] | Extent of the benefit (%) on exhaustion time, treated vs untreated mice (α-SG-null mice; 12 months of treatment, prednisolone 2 mg/kg) [%] | Extent of the benefit (%) on exhaustion time, treated vs untreated mice (α-SG-null mice; 8 months of treatment, molsidomine 3 mg/kg, ISD 30 mg/kg, ibuprofen 50 mg/kg) [%] | Overall effect on histological, functional and biochemical alterations (in words) ([1]; daily in the diet) | Free wheel test [3, 7] [km/24 h] | Free wheel test [3, 8] [km/24 h] | Free wheel test ([3]; 80 days of treatment, XXXVb 12 mg/kg) [km/24 h] | N° of inflammatory Infiltrates/section ([1]; mouse, in vivo) | N° of necrotic Fibres/section ([1]; mouse, in vivo)
1 | COc1ccc2cc([C@H](C)C(=O)OCCCCO[N+](=O)[O-])ccc2c1 [naproxcinod] | 150 | superior amelioration of the muscle function | – | – | – | – | – | – | – | – | – | – | – | – | – | – | – | –
2 | C[C@]12C=CC(=O)C=C1CC[C@@H]1[C@@H]2[C@@H](O)C[C@@]2(C)[C@H]1CC[C@]2(O)C(=O)CO [Prednisolone, prednisolone, reference compound] | – | – | 197.1 ± 23 | 59.4 ± 7.00 | 440.6 ± 33**^ U/ml | 488.2 ± 96.5 | 711.3 ± 69.3 | 717.6 ± 31.1 U/ml | 0.55 ± 0.1 | 117 | 100 | – | – | – | – | – | – | –
3 | CCOC(=O)[N-]c1cn(N2CCOCC2)n[o+]1 [molsidomine] | – | – | – | – | – | – | – | – | – | – | – | 63 | – | – | – | – | – | –
4 | CC[C@H](C)C(=O)O[C@H]1C[C@H](O)C=C2C=C[C@H](C)[C@H](CCC(O)C[C@H](O)CC(=O)OCCCCO[N+](=O)[O-])[C@H]21 (relative stereo) [(XXXVb), [1S-[1α(βS*,δS*),2α,6α,8β-(R*),8aα]]-1,2,6,7,8,8a-hexahydro-β,δ,6-trihydroxy-2-methyl-8-(2-methyl-1-oxobutoxy)-1-naphthaleneheptanoic acid 4-(nitrooxy)butyl ester] | – | – | 35 ± 2.1 | 54.2 ± 8.05 | 440.6 ± 33**^ U/ml | 488.2 ± 96.5 | 627.4 ± 69.3 | 614.8 ± 37**^ U/ml | 0.55 ± 0.03 | – | – | – | significantly effective in reducing the histological, functional and biochemical alterations | 0.58 ± 0.01 | 0.54 ± 0.03 | 0.65 ± 0.05 | – | –
5 | CC(C(=O)OCCCCO[N+](=O)[O-])c1ccc(-c2ccccc2)c(F)c1 (centres unmarked) [(IIIb), 2-fluoro-alfa-methyl-4[1,1′-biphenyl]4-acetic acid 4-nitrooxybutyl ester] | – | – | – | – | 662.6 ± 41 U/ml | 824.0 ± 90.5 | 648.2 ± 25.2 | 482.3 ± 51.2 U/ml | 0.95 ± 0.1 | – | – | – | significantly effective in reducing the histological, functional and biochemical alterations | – | – | – | 84.2 ± 22.5 | 48.4 ± 2.3
6 | CC(=O)Oc1ccccc1C(=O)Oc1cccc(CO[N+](=O)[O-])c1 [(Ib), 2-(acetyloxy)benzoic acid 3-(nitrooxymethyl)phenyl ester] | – | – | 124.1 ± 33 | 91.3 ± 34.5 | 665.6 ± 51 U/ml | 944.0 ± 95.5 | 444.2 ± 20.2 | 494.6 ± 56.1 U/ml | 0.65 ± 0.07 | – | – | – | significantly effective in reducing the histological, functional and biochemical alterations | 0.42 ± 0.08 | 0.31 ± 0.1 | – | – | –
